Legend:
Assay type in all cases: biochemical
JAK2 = target: T1, JAK2 (Homo sapiens, UniProt O60674); assay: JAK2 inhibition (Table 4); conditions: read-out: JAK2 Ki
T1 construct: made in house; host or cells: SF9 insect cells (baculovirus)

TYK2 = target: T2, TYK2 (Homo sapiens, UniProt P29597); assay: TYK2 inhibition (Table 4)
T2 construct: made in house; host or cells: SF9 insect cells (baculovirus)
T2 sequence (P29597 873-1187): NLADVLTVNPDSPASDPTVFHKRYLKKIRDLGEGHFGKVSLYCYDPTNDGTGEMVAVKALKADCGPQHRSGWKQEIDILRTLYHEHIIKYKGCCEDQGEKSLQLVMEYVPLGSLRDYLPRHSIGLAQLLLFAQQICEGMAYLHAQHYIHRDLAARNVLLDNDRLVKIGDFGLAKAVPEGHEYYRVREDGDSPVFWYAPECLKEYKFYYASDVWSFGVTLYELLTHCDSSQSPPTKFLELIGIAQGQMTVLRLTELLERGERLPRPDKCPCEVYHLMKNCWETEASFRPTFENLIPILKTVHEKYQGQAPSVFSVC

JAK3 = target: T3, JAK3 (Homo sapiens, UniProt P52333); assay: JAK3 inhibition (Table 4); conditions: read-out: JAK3 Ki
T3 construct: made in house; host or cells: SF9 insect cells (baculovirus)
T3 sequence (P52333 783-1124): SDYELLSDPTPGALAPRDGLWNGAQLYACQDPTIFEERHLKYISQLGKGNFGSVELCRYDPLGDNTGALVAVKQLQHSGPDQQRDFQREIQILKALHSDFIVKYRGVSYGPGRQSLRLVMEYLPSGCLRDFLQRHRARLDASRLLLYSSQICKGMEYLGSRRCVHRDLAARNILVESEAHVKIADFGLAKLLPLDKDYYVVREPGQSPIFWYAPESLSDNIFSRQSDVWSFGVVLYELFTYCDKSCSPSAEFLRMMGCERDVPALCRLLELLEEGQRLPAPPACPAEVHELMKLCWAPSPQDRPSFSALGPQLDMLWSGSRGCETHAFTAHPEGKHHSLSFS

JAK1 = target: T4, JAK1 (Homo sapiens, UniProt P23458); assay: JAK1 inhibition (Table 4); conditions: read-out: JAK1 Ki
T4 construct: made in house; host or cells: SF9 insect cells (baculovirus)
T4 sequence (P23458 852-1154): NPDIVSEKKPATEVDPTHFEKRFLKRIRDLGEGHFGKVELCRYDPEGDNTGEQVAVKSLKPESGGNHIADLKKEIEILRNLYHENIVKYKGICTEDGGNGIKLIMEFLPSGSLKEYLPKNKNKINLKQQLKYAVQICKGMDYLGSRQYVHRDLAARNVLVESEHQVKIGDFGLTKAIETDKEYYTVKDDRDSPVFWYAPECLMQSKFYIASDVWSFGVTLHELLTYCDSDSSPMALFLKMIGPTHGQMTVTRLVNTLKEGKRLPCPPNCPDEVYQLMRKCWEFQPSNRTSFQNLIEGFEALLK

T1 sequence (O60674 812-1132): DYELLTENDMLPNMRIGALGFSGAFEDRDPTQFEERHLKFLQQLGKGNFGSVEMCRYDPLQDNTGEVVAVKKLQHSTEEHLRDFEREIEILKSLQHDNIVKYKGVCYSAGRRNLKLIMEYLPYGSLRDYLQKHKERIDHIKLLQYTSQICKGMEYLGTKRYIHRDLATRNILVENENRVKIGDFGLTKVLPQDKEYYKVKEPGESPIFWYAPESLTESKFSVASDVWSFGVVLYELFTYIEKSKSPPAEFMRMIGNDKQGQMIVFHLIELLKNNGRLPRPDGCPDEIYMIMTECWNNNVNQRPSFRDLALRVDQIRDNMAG

SMILES | Ki (JAK2) | Ki (TYK2) | Ki (JAK3) | Ki (JAK1)
CC(O)c1nc2cnc3[nH]ccc3c2n1C1CC2CCC1O2 (single isomer, unassigned) [Example 937, Endo-1-[1-(7-Oxa-bicyclo[2.2.1]hept-2-yl)-1,6-dihydro-1,3,5,6-tetraaza-as-indacen-2-yl]-ethanol] | 174 nM | 144 nM | 73.3 nM | 80.5 nM
C[C@@H](O)c1nc2cnc3[nH]ccc3c2n1C1CCNCC1(F)F (single isomer, unassigned) [Example 939] | 18.1 nM | 7.2 nM | 5.58 nM | 0.68 nM
c1cc2c(ncc3ncn([C@@H]4CCCNC4)c32)[nH]1 [Example 2, (R)-1-Piperidin-3-yl-1,6-dihydro-1,2,3,5,6-tetraaza-as-indacene] | 518 nM | 1510 nM | 913 nM | 177 nM
CC(C)(C)OC(=O)N1CC(n2cnc3cnc4[nH]ccc4c32)C1 [Example 3, 3-(6H-1,2,3,5,6-Tetraaza-as-indacen-1-yl)-azetidine-1-carboxylic acid tert-butyl ester] | 191 nM | 1640 nM | 905 nM | 348 nM
O=C(c1ccccc1)N1CCC[C@@H](n2cnc3cnc4[nH]ccc4c32)C1 [Example 6, Phenyl-[(R)-3-(6H-1,2,3,5,6-tetraaza-as-indacen-1-yl)-piperidin-1-yl]-methanone] | 21.4 nM | 134 nM | 373 nM | 11.9 nM
O=C(Cc1ccccc1)N1CCC(n2cnc3cnc4[nH]ccc4c32)CC1 [Example 7, 2-Phenyl-1-[4-(6H-1,2,3,5,6-tetraaza-as-indacen-1-yl)-piperidin-1-yl]-ethanone] | 13.3 nM | 64.6 nM | 283 nM | 8.6 nM
c1cc2c(ncc3ncn([C@@H]4CCCN(Cc5cocn5)C4)c32)[nH]1 [Example 8, 1-((R)-1-Oxazol-4-ylmethyl-piperidin-3-yl)-1,6-dihydro-1,2,3,5,6-tetraaza-as-indacene] | 43.8 nM | 134 nM | 68.9 nM | 12.9 nM
CS(=O)(=O)N1CCC[C@@H](n2cnc3cnc4[nH]ccc4c32)C1 [Example 9, 1-((R)-1-Methanesulfonyl-piperidin-3-yl)-1,6-dihydro-1,2,3,5,6-tetraaza-as-indacene] | 6.5 nM | 35.4 nM | 16.6 nM | 7.48 nM
N#CCCN1CCC[C@@H](n2cnc3cnc4[nH]ccc4c32)C1 [Example 10, 3-[(R)-3-(6H-1,2,3,5,6-Tetraaza-as-indacen-1-yl)-piperidin-1-yl]-propionitrile] | 21.7 nM | 88.5 nM | 21.2 nM | 12.8 nM
NC(=O)CN1CCC[C@@H](n2cnc3cnc4[nH]ccc4c32)C1 [Example 11, 2-[(R)-3-(6H-1,2,3,5,6-Tetraaza-as-indacen-1-yl)-piperidin-1-yl]acetamide] | 37.4 nM | 176 nM | 94.5 nM | 17.3 nM
c1ccc(N2CCC[C@@H](n3cnc4cnc5[nH]ccc5c43)C2)cc1 [Example 12, 1-((R)-1-Phenyl-piperidin-3-yl)-1,6-dihydro-1,2,3,5,6-tetraaza-as-indacene] | 35.7 nM | 170 nM | 17.2 nM | 31 nM
c1cc(N2CCC[C@@H](n3cnc4cnc5[nH]ccc5c43)C2)ncn1 [Example 14, 1-((R)-1-Pyrimidin-4-yl-piperidin-3-yl)-1,6-dihydro-1,2,3,5,6-tetraaza-as-indacene] | 13.6 nM | 85.6 nM | 26.5 nM | 11.4 nM
OCCc1nc2cnc3[nH]ccc3c2n1[C@@H]1CCCN(Cc2ccccc2)C1 [Example 15, 2-[1-((R)-1-Benzyl-piperidin-3-yl)-1,6-dihydro-1,2,3,5,6-tetraaza-as-indacen-2-yl]ethanol] | 86.5 nM | 443 nM | 769 nM | 102 nM
OCCc1nc2cnc3[nH]ccc3c2n1[C@@H]1CCCNC1 [Example 16, 2-((R)-1-Piperidin-3-yl-1,6-dihydro-1,2,3,5,6-tetraaza-as-indacen-2-yl)ethanol] | 680 nM | 758 nM | 1270 nM | 219 nM
N#CCC(=O)N1CCC[C@@H](n2c(CCO)nc3cnc4[nH]ccc4c32)C1 [Example 17, 3-{(R)-3-[2-(2-Hydroxy-ethyl)-6H-1,2,3,5,6-tetraaza-as-indacen-1-yl]-piperidin-1-yl}-3-oxopropionitrile] | 17.1 nM | 29.8 nM | 79.1 nM | 4.04 nM
c1ccc(CN2CCC[C@@H](n3nnc4cnc5[nH]ccc5c43)C2)cc1 [Example 18, 1-((R)-1-Benzyl-piperidin-3-yl)-1,6-dihydro-1,2,3,5,6-pentaaza-as-indacene] | 40.1 nM | 273 nM | 323 nM | 24.6 nM
N#CCC(=O)N1CCC[C@@H](n2nnc3cnc4[nH]ccc4c32)C1 [Example 19, 3-Oxo-3-[(R)-3-(6H-1,2,3,5,6-pentaaza-as-indacen-1-yl)-piperidin-1-yl]propionitrile] | 3.72 nM | 20.3 nM | 24.5 nM | 1.49 nM
CNC(=O)Cc1nc2cnc3[nH]ccc3c2n1C1CCN(Cc2ccccc2)CC1 [Example 21, 2-[1-(1-Benzyl-piperidin-4-yl)-1,6-dihydro-1,2,3,5,6-tetraaza-as-indacen-2-yl]-N-methyl acetamide] | 38.5 nM | 627 nM | 37.6 nM | 9.93 nM
OCc1nc2cnc3[nH]ccc3c2n1C1CCN(Cc2ccccc2)CC1 [Example 22, [1-(1-Benzyl-piperidin-4-yl)-1,6-dihydro-1,2,3,5,6-tetraaza-as-indacen-2-yl]methanol] | 6.44 nM | 69.9 nM | 10.8 nM | 1.73 nM
O=C(Cc1nc2cnc3[nH]ccc3c2n1C1CCN(Cc2ccccc2)CC1)N1CCOCC1 [Example 23, 2-[1-(1-Benzyl-piperidin-4-yl)-1,6-dihydro-1,2,3,5,6-tetraaza-as-indacen-2-yl]-1-morpholin-4-yl-ethanone] | 62.7 nM | 616 nM | 9.98 nM | 6.22 nM
O=C1CCCN1Cc1nc2cnc3[nH]ccc3c2n1C1CCN(Cc2ccccc2)CC1 [Example 24, 1-[1-(1-Benzyl-piperidin-4-yl)-1,6-dihydro-1,2,3,5,6-tetraaza-as-indacen-2-ylmethyl]-pyrrolidin-2-one] | 68.6 nM | 735 nM | 29.2 nM | 10.4 nM
CC(=O)N1CCC[C@@H](n2cnc3cnc4[nH]ccc4c32)C1 [Example 30, 1-[(R)-3-(6H-1,3,5,6-Tetraaza-as-indacen-1-yl)-piperidin-1-yl]ethanone] | 42.2 nM | 141 nM | 139 nM | 29.2 nM
O=C(c1cccnc1)N1CCC[C@@H](n2cnc3cnc4[nH]ccc4c32)C1 [Example 31, Pyridin-3-yl-[(R)-3-(6H-1,3,5,6-tetraaza-as-indacen-1-yl)-piperidin-1-yl]methanone] | 25.9 nM | 159 nM | 419 nM | 13.2 nM

Source: patent US8461328B2, “Tricyclic heterocyclic compounds, compositions and methods of use thereof” (Genentech, Inc., priority 2010, dated 2013)
